Several values for one entry are separate records, joined by “and”; a condition that tells them apart may be missing. Equal entries are not always repeated.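 Protocol summary: plate cells (96-well), add compound at 5 concentrations, incubate 48 h, interpolate endpoints linearly. The concentration for 50% growth inhibition is given as GI50.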 Activity calls are given as the source filed them. No stated cut-off is given here; in the data, active = GI50 up to about 1.1 µM and inactive = higher.
Legend:
Test in all cases: growth of human tumour cells (NCI), 48 h
OVCAR-8 = test system: OVCAR-8
HCT-15 = test system: HCT-15
A549 = test system: A549
K562 = test system: K562
SK-MEL-2 = test system: SK-MEL-2
SK-OV-3 = test system: SK-OV-3
LOX IMVI = test system: LOX IMVI
SK-MEL-5 = test system: SK-MEL-5
Malme-3M = test system: Malme-3M
SK-MEL-28 = test system: SK-MEL-28
HT-29 = test system: HT-29
OVCAR-5 = test system: OVCAR-5
A498 = test system: A498
TK-10 = test system: TK-10
NCI-H226 = test system: NCI-H226
HOP-62 = test system: HOP-62
HCC 2998 = test system: HCC 2998
SF-539 = test system: SF-539
SF-268 = test system: SF-268

Row | Structure (SMILES) | GI50 (OVCAR-8) | GI50 (HCT-15) [µM] | GI50 (A549) | GI50 (K562) | GI50 (SK-MEL-2) | GI50 (SK-OV-3) | GI50 (LOX IMVI) | GI50 (SK-MEL-5) | GI50 (Malme-3M) | GI50 (SK-MEL-28) | GI50 (HT-29) | GI50 (OVCAR-5) | GI50 (A498) | GI50 (TK-10) | GI50 (NCI-H226) | GI50 (HOP-62) | GI50 (HCC 2998) | GI50 (SF-539) | GI50 (SF-268)
1 | N#Cc1nc(C2CCC2)oc1N | > 100 µM (inactive) | > 100 | > 100 µM (inactive) | > 100 µM (inactive) | > 100 µM (inactive) | > 100 µM (inactive) | > 100 µM (inactive) | > 100 µM (inactive) | > 100 µM (inactive) | > 100 µM (inactive) | > 100 µM (inactive) | > 100 µM (inactive) | > 100 µM (inactive) | > 100 µM (inactive) | > 100 µM (inactive) | > 100 µM (inactive) | > 100 µM (inactive) | > 100 µM (inactive) | > 100 µM (inactive)
2 | CC(=O)OCC1OC(n2c(N)c(C#N)c(C)c(C#N)c2=S)C(OC(C)=O)C(OC(C)=O)C1OC(C)=O (centres undefined) | > 100 µM (inactive) | > 100 | > 100 µM (inactive) | – | > 100 µM (inactive) | > 100 µM (inactive) | > 100 µM (inactive) | > 100 µM (inactive) | > 100 µM (inactive) and 78.5 µM (inactive) | > 100 µM (inactive) | > 100 µM (inactive) | > 100 µM (inactive) | > 100 µM (inactive) | > 100 µM (inactive) | > 100 µM (inactive) | > 100 µM (inactive) | > 100 µM (inactive) | > 100 µM (inactive) | > 100 µM (inactive)
3 | N#C/C(=C\n1ccc(=O)[nH]c1=S)C(N)=O | > 100 µM (inactive) | > 100 | > 100 µM (inactive) | > 100 µM (inactive) | > 100 µM (inactive) | > 100 µM (inactive) | > 100 µM (inactive) | > 100 µM (inactive) | > 100 µM (inactive) | > 100 µM (inactive) | > 100 µM (inactive) | > 100 µM (inactive) | > 100 µM (inactive) | – | > 100 µM (inactive) | > 100 µM (inactive) | > 100 µM (inactive) | > 100 µM (inactive) | > 100 µM (inactive)
4 | Fc1ccc(C(OCCN2CCC3CCC(C2)N3C/C=C/c2cccs2)c2ccc(F)cc2)cc1 (centres undefined) | 4.06 µM (inactive) | 4.06 | 11 µM (inactive) | – | 10.7 µM (inactive) | 12.9 µM (inactive) | 6.38 µM (inactive) | 3.04 µM (inactive) | 6.03 µM (inactive) | 6.47 µM (inactive) | 1.37 µM (inactive) | 13.1 µM (inactive) | 9.06 µM (inactive) | 11.1 µM (inactive) | 7.19 µM (inactive) | 13.6 µM (inactive) | 3.21 µM (inactive) | 10.6 µM (inactive) | 12.2 µM (inactive)
5 | C/C(=N\O)c1ccc(Nc2c3ccccc3nc3occc23)cc1 | 0.531 µM (active) | 0.126 | 0.263 µM (active) | 0.174 µM (active) | 0.196 µM (active) | 0.421 µM (active) | 0.29 µM (active) | 0.222 µM (active) | 11.5 µM (inactive) | 0.659 µM (active) | 0.199 µM (active) | 2.75 µM (inactive) | 1.11 µM (active) | 1.17 µM (inactive) | 2.99 µM (inactive) | 0.436 µM (active) | 0.316 µM (active) | 0.169 µM (active) | 0.514 µM (active)
6 | CC(C)CCNC(=O)c1ccc(CNC(=O)/C=C/c2csc(-c3ccccc3)n2)cc1 | 25.8 µM (inactive) | 95.5 | 40.1 µM (inactive) | > 100 µM (inactive) | > 100 µM (inactive) | 40 µM (inactive) | > 100 µM (inactive) | 29.5 µM (inactive) | 29.9 µM (inactive) | 57.7 µM (inactive) | 31.1 µM (inactive) | > 100 µM (inactive) | 19.9 µM (inactive) | 53.2 µM (inactive) | 33.3 µM (inactive) | 17.9 µM (inactive) | > 100 µM (inactive) | > 100 µM (inactive) | 35.4 µM (inactive)
7 | C=C1C(=O)O[C@@H]2C[C@@]3(C)CC(=O)C=C(C)[C@@H]3C[C@H]12 | 15 µM (inactive) | 4.03 | 29.6 µM (inactive) | – | 12.9 µM (inactive) | 37.9 µM (inactive) | 13.9 µM (inactive) | 10 µM (inactive) | 5.98 µM (inactive) | 5.73 µM (inactive) | 6.14 µM (inactive) | 14.7 µM (inactive) | > 10 µM (inactive) | 10.2 µM (inactive) | 36.8 µM (inactive) | 18 µM (inactive) | 14.2 µM (inactive) | 13.3 µM (inactive) | 11.8 µM (inactive)
